Assay results taken from ChEMBL document CHEMBL1201862, “PubChem BioAssay data set” (2004).
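Values below derive from 48-hour exposures of cells grown in 96-well plates, with endpoints linearly interpolated between the two concentrations bracketing the appropriate inhibition level. At the GI50, growth is halved.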 Active and inactive are the calls of the source. No stated cut-off is given here; in the data, active = GI50 up to about 1.1 µM and inactive = higher.

Legend:
Assay in all cases: DTP human tumour cell line panel, 48 h
SF-539 = system: SF-539
CCRF-CEM = system: CCRF-CEM
DLD-1 = system: DLD-1
EKVX = system: EKVX
TK-10 = system: TK-10
U-251 = system: U-251
MOLT-4 = system: MOLT-4
SR = system: SR
SNB-19 = system: SNB-19
OVCAR-3 = system: OVCAR-3
COLO 205 = system: COLO 205
Malme-3M = system: Malme-3M
SK-MEL-5 = system: SK-MEL-5
OVCAR-8 = system: OVCAR-8
RXF 393 = system: RXF 393
SF-295 = system: SF-295
KM-20L2 = system: KM-20L2
XF498 = system: XF498
NCI-H23 = system: NCI-H23
M19-MEL = system: M19-MEL
SNB-75 = system: SNB-75
A549 = system: A549
SK-MEL-2 = system: SK-MEL-2
SW-620 = system: SW-620
M14 = system: M14
HOP-62 = system: HOP-62
LXFL 529 = system: LXFL 529
HOP-18 = system: HOP-18
SK-OV-3 = system: SK-OV-3
IGROV-1 = system: IGROV-1
SF-268 = system: SF-268
HCT-116 = system: HCT-116
SNB-78 = system: SNB-78
UACC-62 = system: UACC-62
OVCAR-4 = system: OVCAR-4
SN12C = system: SN12C
K562 = system: K562
HT-29 = system: HT-29
LOX IMVI = system: LOX IMVI
ACHN = system: ACHN
HL-60 = system: HL-60
KM12 = system: KM12
NCI-H460 = system: NCI-H460
UO-31 = system: UO-31
HCC 2998 = system: HCC 2998
OVCAR-5 = system: OVCAR-5
SK-MEL-28 = system: SK-MEL-28
RPMI-8226 = system: RPMI-8226
HOP-92 = system: HOP-92
DMS-273 = system: DMS-273
HCT-15 = system: HCT-15
DMS-114 = system: DMS-114
NCI-H226 = system: NCI-H226
UACC-257 = system: UACC-257
A498 = system: A498

## O=C(Oc1ccc(Cl)cc1[N+](=O)[O-])c1ccccc1
SF-539
  GI50: > 100 µM (inactive)
CCRF-CEM
  GI50: 73.6 µM (inactive)
DLD-1
  GI50: > 100 µM (inactive)
EKVX
  GI50: > 100 µM (inactive)
TK-10
  GI50: > 100 µM (inactive)
U-251
  GI50: 38.5 µM (inactive)
MOLT-4
  GI50: > 100 µM (inactive)
SR
  GI50: > 100 µM (inactive)
SNB-19
  GI50: > 100 µM (inactive)
OVCAR-3
  GI50: 69.5 µM (inactive)
COLO 205
  GI50: > 100 µM (inactive)
Malme-3M
  GI50: > 100 µM (inactive)
SK-MEL-5
  GI50: 16 µM (inactive)
OVCAR-8
  GI50: > 100 µM (inactive)
RXF 393
  GI50: 24.1 µM (inactive)
SF-295
  GI50: > 100 µM (inactive)
KM-20L2
  GI50: > 100 µM (inactive)
XF498
  GI50: 0.0435 µM (active)
NCI-H23
  GI50: 69.2 µM (inactive)
M19-MEL
  GI50: > 100 µM (inactive)
SNB-75
  GI50: 90.8 µM (inactive)
A549
  GI50: > 100 µM (inactive)
SK-MEL-2
  GI50: > 100 µM (inactive)
SW-620
  GI50: > 100 µM (inactive)
M14
  GI50: > 100 µM (inactive)
HOP-62
  GI50: > 100 µM (inactive)
LXFL 529
  GI50: > 100 µM (inactive)
HOP-18
  GI50: > 100 µM (inactive)
SK-OV-3
  GI50: > 100 µM (inactive)
IGROV-1
  GI50: > 100 µM (inactive)
SF-268
  GI50: > 100 µM (inactive)
HCT-116
  GI50: > 100 µM (inactive)
SNB-78
  GI50: > 100 µM (inactive)
UACC-62
  GI50: > 100 µM (inactive)
OVCAR-4
  GI50: 43.4 µM (inactive)
SN12C
  GI50: > 100 µM (inactive)
K562
  GI50: > 100 µM (inactive)
HT-29
  GI50: > 100 µM (inactive)
LOX IMVI
  GI50: > 100 µM (inactive)
ACHN
  GI50: > 100 µM (inactive)
HL-60
  GI50: 65.6 µM (inactive)
KM12
  GI50: > 100 µM (inactive)
NCI-H460
  GI50: > 100 µM (inactive)
UO-31
  GI50: 86.5 µM (inactive)
HCC 2998
  GI50: > 100 µM (inactive)
OVCAR-5
  GI50: 57.1 µM (inactive)
SK-MEL-28
  GI50: > 100 µM (inactive)
RPMI-8226
  GI50: 91.4 µM (inactive)
HOP-92
  GI50: > 100 µM (inactive)
DMS-273
  GI50: > 100 µM (inactive)
HCT-15
  GI50: > 100 µM
DMS-114
  GI50: > 100 µM (inactive)
NCI-H226
  GI50: 92.9 µM (inactive)
UACC-257
  GI50: > 100 µM (inactive)
A498
  GI50: > 100 µM (inactive)
